Assay results from PubChem BioAssay (NCI).
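Briefly, cells in 96-well plates were exposed to five compound concentrations for 48 h, and endpoints were estimated by linear interpolation. Here, GI50 denotes the concentration required for 50% inhibition of growth. TGI denotes the concentration required for complete inhibition of growth.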

Tests used:
Assay in all cases: NCI-60 cell line screen, 48 h
COLO 205 colon = tested on: COLO 205 colon
K-562 leukemia = tested on: K-562 leukemia
UO-31 renal = tested on: UO-31 renal
SK-MEL-28 melanoma = tested on: SK-MEL-28 melanoma
NCI-H23 lung = tested on: NCI-H23 lung
IGROV1 ovarian = tested on: IGROV1 ovarian
SK-MEL-2 melanoma = tested on: SK-MEL-2 melanoma
TK-10 renal = tested on: TK-10 renal
EKVX NSCLC = tested on: EKVX NSCLC
HT29 colon = tested on: HT29 colon

Compound | TGI (COLO 205 colon) | TGI (K-562 leukemia) | TGI (UO-31 renal) | TGI (SK-MEL-28 melanoma) | TGI (NCI-H23 lung) | TGI (IGROV1 ovarian) | TGI (SK-MEL-2 melanoma) | TGI (TK-10 renal) | TGI (EKVX NSCLC) | TGI (HT29 colon) | GI50 (COLO 205 colon) | GI50 (K-562 leukemia) | GI50 (UO-31 renal) | GI50 (SK-MEL-28 melanoma) | GI50 (NCI-H23 lung) | GI50 (IGROV1 ovarian) | GI50 (SK-MEL-2 melanoma) | GI50 (TK-10 renal) | GI50 (EKVX NSCLC) | GI50 (HT29 colon)
O=C1/C(=C/c2ccccc2Cl)COc2ccccc21 | 40.1 µM | 29.7 µM | 28.3 µM | 30.1 µM | 36 µM | 35.6 µM | 29 µM | 27.1 µM | 29.7 µM | 45.1 µM | – | – | – | – | – | – | – | – | – | –
COc1cccc(C2C3=C(COC3=O)N(CCO)c3cc4c(cc32)CCC4)c1 (centres undefined) | 0.198 µM | 8.81 µM | 1.44 µM | > 50 µM | 4.02 µM | 0.0692 µM | 0.239 µM | > 50 µM | > 50 µM | 0.156 µM | 0.0584 µM | 0.0279 µM | 0.0192 µM | 13.4 µM | 0.0604 µM | 0.0169 µM | 0.0255 µM | 2.13 µM | 0.133 µM | 0.042 µM
CCCCCNC(=O)C1C(=O)N(CCCCC)C(=O)/C1=N\N (centres undefined) | > 100 µM | > 100 µM | 81.8 µM | > 100 µM | > 100 µM | > 100 µM | 86.2 µM | > 100 µM | > 100 µM | > 100 µM | – | – | – | – | – | – | – | – | – | –
Cc1ccc2c(c1)/C(=N\N=C/c1cn(C(C)C)c3ccccc13)C(=O)N2 | 2.08 µM | > 100 µM | > 100 µM | > 100 µM | > 100 µM | > 100 µM | 23 µM | > 100 µM | > 100 µM | > 100 µM | 0.324 µM | 1.96 µM | 1.98 µM | 21.9 µM | 4.56 µM | 1.37 µM | 2.3 µM | 15 µM | 22 µM | 2.82 µM
Clc1ccc(C2=NN(c3ccccc3)C3c4cc(Br)ccc4OCC23)cc1 (centres undefined) | > 100 µM | > 100 µM | > 100 µM | > 100 µM | > 100 µM | > 100 µM | > 100 µM | > 100 µM | > 100 µM | > 100 µM | – | – | – | – | – | – | – | – | – | –
C/C(=N\NC(=S)Nc1ccccc1)c1ccccn1 | 1.48 µM | 6.93 µM | 2.75 µM | 4.94 µM | 5.22 µM | 9.26 µM | 3.79 µM | 3.77 µM | 7.38 µM | 2.54 µM | 0.0119 µM | < 0.01 µM | 0.0565 µM | 1.68 µM | 0.0191 µM | < 0.0163 µM | 1.37 µM | 1.02 µM | 0.0691 µM | 0.0203 µM
O=[N+]([O-])c1ccc(N=Nc2c(O)[nH]c3ccc(Br)cc23)c([N+](=O)[O-])c1 | 5.92 µM | 15.5 µM | 7.14 µM | 10.3 µM | 8.28 µM | 45.7 µM | 8.04 µM | 37.8 µM | 33.7 µM | > 100 µM | – | – | – | – | – | – | – | – | – | –
O=c1[nH]cnc2c1nnn2C1C=C(CO)C(O)C1O (centres undefined) | > 100 µM | > 100 µM | > 100 µM | > 100 µM | > 100 µM | > 100 µM | > 100 µM | > 100 µM | > 100 µM | > 100 µM | – | – | – | – | – | – | – | – | – | –
Nc1cc2c3c(cccc3c1)C(=O)N(CCN1CCN(CCN3C(=O)c4cccc5cc(N)cc(c45)C3=O)CC1)C2=O | > 100 µM | > 100 µM | > 100 µM | > 100 µM | > 100 µM | > 100 µM | > 100 µM | > 100 µM | > 100 µM | > 100 µM | – | – | – | – | – | – | – | – | – | –
NCCCNCCCNc1nc2ccccc2c2[nH]c3ccccc3c12 | 2.12 µM | – | 3.17 µM | 2.1 µM | 1.06 µM | 1.03 µM | 2.42 µM | 3.68 µM | 5.8 µM | 1.86 µM | 0.182 µM | 0.0578 µM | 0.309 µM | 0.464 µM | 0.0936 µM | 0.0837 µM | 0.703 µM | 1.1 µM | 2.09 µM | 0.0482 µM
CCN1C(=O)N(CC)C2C1NN=c1s/c(=C\c3ccc([N+](=O)[O-])cc3)c(=O)n12 (centres undefined) | 11.8 µM | > 100 µM | > 100 µM | > 100 µM | > 100 µM | > 32.9 µM | > 100 µM | > 100 µM | > 100 µM | > 100 µM | 0.469 µM | 0.35 µM | 0.903 µM | 1.93 µM | 1.11 µM | 0.977 µM | 1.16 µM | > 35.4 µM | 0.893 µM | 0.375 µM
Cn1cc(-c2csc(-c3cn(C)c4ncccc34)n2)c2ccccc21 | 1.05 µM | 16.6 µM | > 66.4 µM | > 100 µM | 20.6 µM | 33.6 µM | 16.8 µM | 19.4 µM | > 100 µM | 4.16 µM | 0.229 µM | 0.103 µM | 0.71 µM | 1.23 µM | 0.752 µM | 1.28 µM | 0.405 µM | 1 µM | 0.906 µM | 0.276 µM
COc1ccc(C(NCCNC(c2ccc(OC)c(OC)c2)c2cc3c(cc2O)OCO3)c2cc3c(cc2O)OCO3)cc1OC (centres undefined) | > 26.1 µM | > 28.1 µM | 8.27 µM | 3.55 µM | 9.3 µM | 7.67 µM | 15.9 µM | 12.7 µM | 18.7 µM | 9.69 µM | – | – | – | – | – | – | – | – | – | –
